Legend:
[1] = test system: GT4 (a/d/n/unknown) chimeric replicons (patient-derived NS5B); assay: PhenoSense HCV NS5B Assay, GT4 chimeric replicons; format: cell-based, hepatitis C virus (HCV); details: Example 4; IC50 fold change, compared to GT1 chimeric replicons
Description: (§1) RTV RNA was electroporated into a Huh7 cell line, and electroporated cells were incubated in the absence and presence of serially diluted inhibitors. RNA input was monitored by measuring the amount of luciferase activity produced in the electroporated cells at 4 hours post-electroporation. Luciferase activity is expressed as relative light units (RLU). Replication capacity (RC) was determined by evaluating luciferase activity at 72-96 hours postelectroporation in the absence of inhibitor, relative to RNA input and a control reference replicon RTV (Con1). A replication defective Con1 replicon (Con1 polymerase defective) was utilized to determine assay background (data not shown). Inhibitor susceptibility was determined by evaluating the ability of RTVs to replicate in the absence and presence of inhibitor at 72-96 hours post-electroporation. The % inhibition at each serial diluted inhibitor concentration was derived as follows:
(§2) [1−([…])]×100
(§3) Inhibitor susceptibility profiles (curves) were derived from these values, and inhibition data (e.g., IC50, the inhibitor concentration required to reduce virus replication by 50%; and IC95, the inhibitor concentration required to reduce virus replication by 95%) was extrapolated from fitted curves. […]

[2] = test system: HCV infection; details: cited from earlier work
[3] = test system: GT3 (a/unknown) chimeric replicons (patient-derived NS5B); assay: PhenoSense HCV NS5B Assay, GT3 chimeric replicons; format: cell-based, hepatitis C virus (HCV); details: Example 4; for susceptibility of GT3 chimeric replicons: IC50 fold change, compared to GT1 chimeric replicons
Description: as §1, §2
(§4) Inhibitor susceptibility profiles (curves) were derived from these values, and inhibition data (e.g., IC50, the inhibitor concentration required to reduce virus replication by 50%; and IC95, the inhibitor concentration required to reduce virus replication by 95%) was extrapolated from fitted curves. Inhibition data are reported as fold-change relative to that of a reference RTV (e.g., IC50 (sample)/IC50 (reference)) processed in the same assay batch (e.g., IC50 fold-change (FC) from reference). An example of the PhenoSense® HCV NS5B Assay workflow is shown in FIG. 1, and a representative inhibitor susceptibly curve is shown in FIG. 2.
(§5) To determine the susceptibility of different genotype viruses to various inhibitors, the PhenoSense® HCV NS5B Assay was used. A panel of replicons were generated that contained patient-derived NS5B regions from GT1 (a/b), GT2 (a/b/k), GT3 (a/unknown), and GT4 (a/d/n/unknown) viruses. The various chimeric replicons were used in the phenotypic susceptibility assays described herein. […]

[4] = test system: replicons containing patient-derived NS5B regions from GT1, GT2, GT3, and GT4 viruses; assay: PhenoSense HCV NS5B Assay, luciferase replicon panel across genotypes; format: cell-based, hepatitis C virus (HCV); details: for variation in susceptibility within and between genotypes: GT1-GT4 chimeric replicons, IC50/IC95 fold change
Description: Most samples were received as frozen plasma and were accompanied by information including HCV genotype and/or subtype (e.g., 1a, 1b, 2, 3, 4) and viral load. Samples were thawed and stored in frozen aliquots if necessary, and a 200 μL aliquot was processed. Virus particles were disrupted by addition of lysis buffer containing a chaotropic agent. Genomic viral RNA (vRNA) was extracted from viral lysates using oligo-nucleotide linked magnetic beads. Purified vRNA was used as a template for first-strand cDNA synthesis in a reverse transcriptase (RT) reaction. The resulting cDNA was used as the template for the first round of a nested polymerase chain reaction (PCR) that results in the amplification of the entire NS5B region. Due to the sequence variation between different genotypes, specific RT and first and second round PCR primers were used. If genotype and/or subtype information was not available, more than one primer set can be used sequentially or in parallel.
The second round (nested) PCR amplification primer set contained restriction endonuclease recognition/cleavage sites that enable cloning of NS5B amplification products into an HCV replicon resistance test vector (RTV) for phenotypic drug susceptibility analysis. […] Plasmid DNA was purified from bacterial cultures, using silica column chromatography, and was quantified by spectrophotometry.
Prior to in vitro transcription of the RTV, the plasmid DNA template was linearized by restriction endonuclease digestion and column purified. […] In vitro transcribed RNA was column purified, quantified, and the integrity was evaluated using electrophoretic separation.
RTV RNA was electroporated into a Huh7 cell line, and electroporated cells were incubated in the absence and presence of serially diluted inhibitors. RNA input was monitored by measuring the amount of luciferase activity produced in the electroporated cells at 4 hours post-electroporation. Luciferase activity is expressed as relative light units (RLU). […]

[5] = test system: GT2 (a/b/k) chimeric replicons (patient-derived NS5B); assay: PhenoSense HCV NS5B Assay, GT2 chimeric replicons; format: cell-based, hepatitis C virus (HCV); details: for susceptibility of GT2 chimeric replicons: Example 4, IC50 fold change, compared to GT1 chimeric replicons
Description: as §1, §2, §4, §5

[6] = test system: GT1 (a/b) chimeric replicons (patient-derived NS5B); assay: PhenoSense HCV NS5B Assay, GT1 chimeric replicons; format: cell-based, hepatitis C virus (HCV); details: GT1a/b NS5B replicons
Description: as §1, §2, §3

[7] = non-primate animal species; cited from earlier work

CC(C)OC(=O)[C@H](C)N[P@](=O)(OC[C@H]1O[C@@H](n2ccc(=O)[nH]c2=O)[C@](C)(F)[C@@H]1O)Oc1ccccc1 [SOF, sofosbuvir]
susceptibility of GT4 chimeric replicons [1]: significantly reduced
most common adverse effects ([2]; administered in combination with PEG-IFN): fatigue, headache, nausea, insomnia, and anemia
reported adverse effects ([2]; administered in combination with ribavirin): fatigue and headache
susceptibility of GT3 viruses compared to GT2 [3]: reduced susceptibility
susceptibility of GT3 chimeric replicons [3]: significantly reduced
variation in susceptibility within and between genotypes [4]: more variable between genotypes
susceptibility of GT2a compared to GT2b chimeric replicons ([5]; Example 4 (FIG. 8, FIG. 9)): more increased susceptibility
susceptibility of GT2 chimeric replicons [5]: increased susceptibility
susceptibility among GT1 replicons [6]: similar

NC(=O)c1ncn([C@@H]2O[C@H](CO)[C@@H](O)[C@H]2O)n1 [RBV, ribavirin]
susceptibility of GT4 chimeric replicons [1]: particularly susceptible
half-life ([2]; in the body): long half-life
anemia ([2]; patients): cause of anemia
susceptibility of GT3 chimeric replicons [3]: particularly susceptible
variation in susceptibility within and between genotypes [4]: more variable between genotypes
IC FC range ([4]; IC fold change vs Con1 reference, range over GT1-GT4 viruses (FIG. 6, FIG. 10)): 25
susceptibility of GT2 chimeric replicons [5]: statistically significant increases
teratogenic effects [7]: Significant teratogenic effects
susceptibility among GT1 replicons [6]: similar

— patent US20160237511A1, “METHODS FOR D[…] SENSITIVITY TO VIRAL INHIBITORS” (priority 2013, published 2016)
